This note sets out measurements from US20260015350A1, “AZAQUINAZOLINE PAN-KRAS INHIBITORS” (Mirati Therapeutics, Inc., priority 2022, published 2026).

SMILES strings stand for the structures.

One assay concerns the target T1, KRas^G12D (Homo sapiens, UniProt P01116, G12D).
T1 construct: Biotinylated KRas (corresponding to amino acids 1-169, produced at Accelegan Inc.); biotin (biotinylated); purchased Accelegan Inc
Kind of assay: KRas binding assay (TR-FRET tracer displacement), KRas G12D. For orientation: Time-resolved FRET reads energy transfer from a long-lived donor to a nearby acceptor.

In another assay the target is T2, KRas^G12R (Homo sapiens, UniProt P01116, G12R).
T2 construct: Biotinylated KRas (corresponding to amino acids 1-169, produced at Accelegan Inc.); biotin (biotinylated); purchased Accelegan Inc
In words: KRas binding assay (TR-FRET tracer displacement), KRas G12R.

Assay [1] has as its system KRas-mediated phosphorylation of ERK in H727 cells. Kind of assay: Inhibition of KRas-mediated phosphorylation of ERK (Cisbio HTRF pERK), H727 cells. The class given is cell-based. The following applies: Homo sapiens, NCI-H727, H727 cells; HTRF pERK. An outline of the steps:
(§1)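 Phosphorylated ERK was quantified by HTRF using d2-conjugate and Cryptate antibodies added to lysates for 2 hrs at room temperature.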

The target in the next assay is T3, KRas^G12V (Homo sapiens, UniProt P01116, G12V).
T3 construct: Biotinylated KRas (corresponding to amino acids 1-169, produced at Accelegan Inc.); biotin (biotinylated); purchased Accelegan Inc
In words: KRas binding assay (TR-FRET tracer displacement), KRas G12V.

For assay [2], the system named is KRas-mediated phosphorylation of ERK in AsPC-1 cells. Kind of assay: Inhibition of KRas-mediated phosphorylation of ERK (Cisbio HTRF pERK), AsPC-1 cells. The assay is classed as cell-based. Particulars: Homo sapiens, ASPC1, AsPC-1 cells; HTRF pERK. An outline of the steps: as §1

T2 sequence (P01116 1-169 isoform P01116-2 G12R): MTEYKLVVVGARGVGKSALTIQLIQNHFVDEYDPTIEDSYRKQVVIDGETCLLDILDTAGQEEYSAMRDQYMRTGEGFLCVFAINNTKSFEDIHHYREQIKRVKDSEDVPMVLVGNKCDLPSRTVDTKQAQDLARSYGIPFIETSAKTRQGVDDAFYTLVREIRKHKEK
T3 sequence (P01116 1-169 isoform P01116-2 G12V): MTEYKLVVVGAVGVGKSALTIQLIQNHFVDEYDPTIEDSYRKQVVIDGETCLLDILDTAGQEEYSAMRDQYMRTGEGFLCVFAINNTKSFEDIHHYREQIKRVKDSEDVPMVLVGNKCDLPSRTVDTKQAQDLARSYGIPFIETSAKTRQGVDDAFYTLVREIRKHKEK
T1 sequence (P01116 1-169 isoform P01116-2 G12D): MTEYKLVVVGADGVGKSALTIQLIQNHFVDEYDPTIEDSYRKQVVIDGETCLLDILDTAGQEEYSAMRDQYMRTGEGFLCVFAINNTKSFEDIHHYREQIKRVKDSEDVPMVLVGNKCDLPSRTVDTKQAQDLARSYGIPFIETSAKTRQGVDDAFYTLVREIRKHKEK

On to `CCc1c(F)ccc2cc(O)cc(-c3ncc4c(N5C[C@@H]6[C@@H](CC(N)=O)NC(=O)[C@@H]6C5)nc(OC[C@@]56CCCN5C[C@H](F)C6)nc4c3F)c12` [Example 641, 2-((1R,3aS,6aR)-5-(7-(8-ethyl-7-fluoro-3-hydroxynaphthalen-1-yl)-8-fluoro-2-(((2R,7aS)-2-fluorotetrahydro-1H-pyrrolizin-7a(5H)-yl)methoxy)pyrido[4,3-d]pyrimidin-4-yl)-3-oxooctahydropyrrolo[3,4-c]pyrrol-1-yl)acetamide], for which the IC50 on KRas^G12D is 3120 nM; on KRas^G12R it was 540 nM; in assay [1], above 10000 nM; on KRas^G12V, 632 nM; in assay [2] it was above 10000 nM.
On to `CCc1c(F)ccc2cc(O)cc(-c3ncc4c(N5C[C@@H]6[C@@H](C(F)(F)F)C[C@]6(CO)C5)nc(OC[C@@]56CCCN5C[C@H](F)C6)nc4c3F)c12` [Example 647, 5-ethyl-6-fluoro-4-(8-fluoro-2-(((2R,7aS)-2-fluorohexahydro-1H-pyrrolizin-7a-yl)methoxy)-4-((1R,5R,6S)-1-(hydroxymethyl)-6-(trifluoromethyl)-3-azabicyclo[3.2.0]heptan-3-yl)pyrido[4,3-d]pyrimidin-7-yl)naphthalen-2-ol], for which the concentration for half-maximal inhibition (IC50) at KRas^G12D is 1990 nM; at KRas^G12R, 582 nM; in assay [1], above 10000 nM; at KRas^G12V it was 581 nM; in assay [2] it was 9340 nM.
As for `CCc1c(F)ccc2cc(O)cc(-c3ncc4c(N5CC6(CO)CC(C7CCCC7)(C5)C6)nc(OC[C@@]56CCCN5C[C@H](F)C6)nc4c3F)c12` [Example 648, 4-(4-(1-cyclopentyl-5-(hydroxymethyl)-3-azabicyclo[3.1.1]heptan-3-yl)-8-fluoro-2-(((2R,7aS)-2-fluorohexahydro-1H-pyrrolizin-7a-yl)methoxy)pyrido[4,3-d]pyrimidin-7-yl)-5-ethyl-6-fluoronaphthalen-2-ol], the IC50 was 9120 nM at KRas^G12D; 7370 nM at KRas^G12R; above 10000 nM in assay [1]; 6080 nM on KRas^G12V; above 10000 nM in assay [2].
For the compound `CCc1c(F)ccc2cc(O)cc(-c3ncc4c(N5CCCC(S(=O)(=O)C(F)F)C5)nc(OC[C@@]56CCCN5C[C@H](F)C6)nc4c3F)c12` (stereo partly drawn) [Example 652, 4-(4-(3-((difluoromethyl)sulfonyl)piperidin-1-yl)-8-fluoro-2-(((2R,7aS)-2-fluorotetrahydro-1H-pyrrolizin-7a(5H)-yl)methoxy)pyrido[4,3-d]pyrimidin-7-yl)-5-ethyl-6-fluoronaphthalen-2-ol], the IC50 is 125 nM at KRas^G12D; 51 nM at KRas^G12R; 1390 nM in assay [1]; 40 nM at KRas^G12V; 2280 nM in assay [2].
On the same counts, the results for `CCc1c(F)ccc2cc(O)cc(-c3ncc4c(SCc5cc(C(=O)N(C)C)nn5C)nc(OC[C@@]56CCCN5C[C@H](F)C6)nc4c3F)c12` [Example 653, 5-(((7-(8-ethyl-7-fluoro-3-hydroxynaphthalen-1-yl)-8-fluoro-2-(((2R,7aS)-2-fluorohexahydro-1H-pyrrolizin-7a-yl)methoxy)pyrido[4,3-d]pyrimidin-4-yl)thio)methyl)-N,N,1-trimethyl-1H-pyrazole-3-carboxamide] are 123 nM, 16 nM, above 10000 nM, 20 nM and above 10000 nM.
With `CCc1c(F)ccc2cc(O)cc(-c3ncc4c(N5CCCC6(C5)CN(S(C)(=O)=O)C6)nc(OC[C@@]56CCCN5C[C@H](F)C6)nc4c3F)c12` [Example 654, 5-ethyl-6-fluoro-4-(8-fluoro-2-(((2R,7aS)-2-fluorohexahydro-1H-pyrrolizin-7a-yl)methoxy)-4-(2-(methylsulfonyl)-2,6-diazaspiro[3.5]nonan-6-yl)pyrido[4,3-d]pyrimidin-7-yl)naphthalen-2-ol], the IC50 at KRas^G12D was 19 nM; at KRas^G12R, 18 nM; in assay [1], 1790 nM; on KRas^G12V it was 25 nM; in assay [2], 1410 nM.
On the same counts, the results for `CCc1c(F)ccc2cc(O)cc(-c3ncc4c(N5CCC(N6CCCCS6(=O)=O)C5)nc(OC[C@@]56CCCN5C[C@H](F)C6)nc4c3F)c12` (stereo partly drawn) [Example 655, 2-(1-(7-(8-ethyl-7-fluoro-3-hydroxynaphthalen-1-yl)-8-fluoro-2-(((2R,7aS)-2-fluorotetrahydro-1H-pyrrolizin-7a(5H)-yl)methoxy)pyrido[4,3-d]pyrimidin-4-yl)pyrrolidin-3-yl)-1,2-thiazinane 1,1-dioxide] are 2880 nM, 633 nM, above 10000 nM, 291 nM and above 10000 nM.
On the same counts, the results for `CCc1c(F)ccc2cc(O)cc(-c3ncc4c(N5CCC(N6C(=O)OC7CNCC76)CC5)nc(OC[C@@]56CCCN5C[C@H](F)C6)nc4c3F)c12` (stereo partly drawn) [Example 659, 3-(1-(7-(8-ethyl-7-fluoro-3-hydroxynaphthalen-1-yl)-8-fluoro-2-(((2R,7aS)-2-fluorotetrahydro-1H-pyrrolizin-7a(5H)-yl)methoxy)pyrido[4,3-d]pyrimidin-4-yl)piperidin-4-yl)hexahydro-2H-pyrrolo[3,4-d]oxazol-2-one] are 462 nM, 1610 nM, above 10000 nM, 582 nM and above 10000 nM.
On the same counts, the results for `CCc1c(F)ccc2cc(O)cc(-c3ncc4c(N5CCCn6nc(S(N)(=O)=O)cc6C5)nc(OC[C@@]56CCCN5C[C@H](F)C6)nc4c3F)c12` [Example 661, 5-(7-(8-ethyl-7-fluoro-3-hydroxynaphthalen-1-yl)-8-fluoro-2-(((2R,7aS)-2-fluorohexahydro-1H-pyrrolizin-7a-yl)methoxy)pyrido[4,3-d]pyrimidin-4-yl)-5,6,7,8-tetrahydro-4H-pyrazolo[1,5-a][1,4]diazepine-2-sulfonamide] are 680 nM, 699 nM, above 10000 nM, 1740 nM and above 10000 nM.
Regarding `CCc1c(F)ccc2cc(O)cc(-c3ncc4c(N5C[C@@H]6[C@@H](CS(N)(=O)=O)NC(=O)[C@@H]6C5)nc(OC[C@@]56CCCN5C[C@H](F)C6)nc4c3F)c12` [Example 665, 1-((1S,3aS,6aR)-5-(7-(8-ethyl-7-fluoro-3-hydroxynaphthalen-1-yl)-8-fluoro-2-(((2R,7aS)-2-fluorotetrahydro-1H-pyrrolizin-7a(5H)-yl)methoxy)pyrido[4,3-d]pyrimidin-4-yl)-3-oxooctahydropyrrolo[3,4-c]pyrrol-1-yl)methanesulfonamide], the IC50 was found to be 1980 nM at KRas^G12D; 1250 nM at KRas^G12R; 3120 nM in assay [1]; 966 nM on KRas^G12V; 1240 nM in assay [2].
On the same counts, the results for `CCc1c(F)ccc2cc(O)cc(-c3ncc4c(N5CCOCC6(CCS(=O)(=O)CC6)C5)nc(OC[C@@]56CCCN5C[C@H](F)C6)nc4c3F)c12` [Example 667, 11-(7-(8-ethyl-7-fluoro-3-hydroxynaphthalen-1-yl)-8-fluoro-2-(((2R,7aS)-2-fluorohexahydro-1H-pyrrolizin-7a-yl)methoxy)pyrido[4,3-d]pyrimidin-4-yl)-8-oxa-3-thia-11-azaspiro[5.6]dodecane 3,3-dioxide] are 445 nM, 323 nM, 6050 nM, 203 nM and 6150 nM.
As to `CCc1c(F)ccc2cc(O)cc(-c3ncc4c(NCc5cc(C(=O)N(C)C)n(CCC#N)n5)nc(OC[C@@]56CCCN5C[C@H](F)C6)nc4c3F)c12` [Example 668, 1-(2-cyanoethyl)-3-(((7-(8-ethyl-7-fluoro-3-hydroxynaphthalen-1-yl)-8-fluoro-2-(((2R,7aS)-2-fluorohexahydro-1H-pyrrolizin-7a-yl)methoxy)pyrido[4,3-d]pyrimidin-4-yl)amino)methyl)-N,N-dimethyl-1H-pyrazole-5-carboxamide], the concentration for half-maximal inhibition (IC50) at KRas^G12D was 34 nM; at KRas^G12R, 16 nM; in assay [1], above 10000 nM; at KRas^G12V, 12 nM; in assay [2] it was above 10000 nM.
Consider `CCc1c(F)ccc2cc(O)cc(-c3ncc4c(NCc5cn(C(=O)N(C)C)nc5NC(C)=O)nc(OC[C@@]56CCCN5C[C@H](F)C6)nc4c3F)c12` [Example 675, 3-acetamido-4-(((7-(8-ethyl-7-fluoro-3-hydroxynaphthalen-1-yl)-8-fluoro-2-(((2R,7aS)-2-fluorohexahydro-1H-pyrrolizin-7a-yl)methoxy)pyrido[4,3-d]pyrimidin-4-yl)amino)methyl)-N,N-dimethyl-1H-pyrazole-1-carboxamide], for which the 50% inhibitory concentration (IC50) at KRas^G12D is 32 nM; at KRas^G12R, below 2 nM; in assay [1], 2040 nM; on KRas^G12V, 3 nM; in assay [2], 9490 nM.

As usually defined, the IC50 is the point on the concentration scale where inhibition reaches its midpoint. Low values mean greater potency in that assay, high ones weaker potency in that assay.
